We go through three molecules from patent publication US20190381180A1, “HYBRID CARRIERS FOR NUCLEIC ACID CARGO” (CureVac AG, priority 2016, published 2019).

The subject of one assay is Sol8 cells. As to the kind of experiment: Transfection of Sol8 muscle cells in vitro. It is filed as cell-based, Mus musculus. The settings on record: very small amount of lipid, in combination with low- and high-charge ratio complexes. How it is done:
A volume of 10 μL supernatant was transferred to a 96 well plate for GpLuc measurement. Then, coelenterazine working solution (100 μM) was prepared (1 mL coelenterazine stock solution (4.72 mM in EtOH) in 49 mL phosphate buffered saline supplemented with 5 mM NaCl, pH 7.2). A volume of 100 μL coelenterazine working solution was used as a substrate for GpLuc and measured after 5 seconds in a commercially available microplate reader.
As a read-out for transfection efficiency, […] mRNA (SEQ ID:NO 15) was used as a cargo. A successful transfection with the cargo leads to the translation of the luciferase protein and to a secretion of Gp luciferase protein into the cell culture supernatant.
For a subset on hydrogel, a volume of 0.2 mL Sol8 cells (20.000 cells) were seeded in 96 well glass bottom plates (Softwell Hydrogel coated with collagen (elasticity E=12 kPa)). For another subset without hydrogel, a volume of 0.2 mL with 10.000 Sol8 cells per well were seeded in a 96 well glass bottom plates.
After removing the medium from each well, 100 μL DMEM medium (with 2% horse serum) was added to each well. […] Twenty-four hours post transfection, 10 μL of supernatant of each well was extracted and used for further luminescence analysis, which was performed as described in Example 5.

Assay [1] has as its system HepG2 cells (human liver carcinoma cell line). As to the kind of experiment: Transfection efficiency on HepG2 cells in vitro (GpLuc luminescence in supernatant). It is filed as cell-based. The settings on record: GpLuc mRNA, 24 h (FIG. 2A). How it is done: This example describes the evaluation of the effect of different polymer-lipid formulations on transfection efficiency on HepG2 cells (human liver carcinoma cell line). As a read-out for transfection efficiency, GpLuc mRNA (SEQ ID NO:14) was used as a cargo.
Successful transfection with the cargo leads to the translation of the luciferase protein and to a secretion of Gp luciferase protein into the cell culture supernatant.
A volume of 0.2 mL HepG2 cells (10.000 cells) were seeded in a 96 well tissue culture plate. After removing the medium from each well, 100 μL RPMI 1640 medium (with 1% Penicillin and 1% Streptomycin, 1% L-Glutamin) was added to each well. Afterwards, HepG2 cells were transfected with 100 μL transfection mix (in triplicates) of polymer-lipid mRNA complexes (prepared according to Example 3) and respective controls (in triplicates), and cells were incubated at 37° C. and 5% CO2 for 90 minutes. […] Twenty-four hours post transfection, 10 μL of supernatant of each well was extracted and used for further luminescence analysis (see below).
A volume of 10 μL supernatant was transferred to a 96 well plate for GpLuc measurement. […] A volume of 100 μL coelenterazine working solution was used as a substrate for GpLuc and measured after 5 seconds in a commercially available microplate reader.

Each structure is given as a SMILES string.

Take `CCCCCCCC/C=C\CCCCCCCC(=O)OCC(C[N+](C)(C)C)OC(=O)CCCCCCC/C=C\CCCCCCCC.[Cl-]` (stereo not drawn) [N-[1-(2,3-dioleoyloxy)propyl]-N,N,N-trimethylammonium chloride]: the “increase of expression levels in Sol8 cells” value in the assay with Sol8 cells is “effective”.

With `CCCCC/C=C\C/C=C\CCCCCCCCC(CCCCCCCC/C=C\C/C=C\CCCCC)OC(=O)CCCN(C)C` [MC3, (6Z,9Z,28Z,31Z)-heptatriaconta-6,9,28,31-tetraen-19-yl-4-(dimethylamino)butanoate], the “transfection efficiency compared to PB83 polymer alone” value in assay [1] (combination with polymer PB83, low charge complexes (N/P 0.7), 0.4 and 1 nmol/μg RNA lipid) is on record as “increase in transfection efficiency”.

For the molecule `CCCCC/C=C\C/C=C\CCCCCCCCC1(CCCCCCCC/C=C\C/C=C\CCCCC)OCC(CCN(C)C)O1` (stereo not drawn) [KC2, 2,2-dilinoleyl-4-(2-dimethylaminoethyl)[1,3]-dioxolane], the “transfection efficiency compared to PB83 polymer alone” value in assay [1] (combination with polymer PB83, high-charge complexes (N/P 4), 1 and 2 nmol/μg RNA lipid) is “this effect was observable”.
